{"source": "patent US20100248267A1", "about": "“METHOD FOR MEASUREMENT OF CONCENTRATION OF ANTIGEN” (JAPAN SCIENCE AND TECHNOLOGY AGENCY, priority 2007, published 2010)", "molecules": {"B1": {"name": "cpBLA: circularly permutated β-lactamase without antibody domains (SEQ ID NO: 13), control (protein, listed as Escherichia coli)", "chain": "NEAIPNDERDTTMPAAMATTLRKLLTGELLTLASRQQLIDWMEADKVAGPLLRSALPAGWFIADKSGAGERGSRGIIAALGPDGKPSRIVVIYTTGSQATMDERNRQIAEIGASLIKHWDKSHPETLVKVKDAEDQLGARVGYIELDLNSGKILESFRPEERFPMMSTFKVLLCGAVLSRIDAGQEQLGRRIHYSQNDLVEYSPVTEKHLTDGMTVRELCSAAITMSDNTAANLLLTTIGGPKELTAFLHNMGDHVTRLDRWEPELNEA"}}, "key": {"[1]": {"tested_on": "wild-type BL21 (DE3, pLysS) strain", "assay": "Toxicity test of ICP in E. coli (growth curve, turbidity at 660 nm)", "assay_type": "cell-based", "details": "100 ng/ml ICP, LB medium, 27° C. overnight, versus medium without ICP", "description": "The BL21 (DE3, pLysS) strain was cultured at 30° C. overnight on an LB agar medium plate containing 37 μg/ml of chloramphenicol. The generated colonies were picked with a toothpick, inoculated and cultured in a 4 ml of the LB liquid culture medium containing 37 μg/ml of chloramphenicol at 27° C. overnight. 40 μl of this pre-cultured medium was inoculated and cultured in a 4 ml of the liquid culture medium containing 37 μg/ml of chloramphenicol and 100 ng/ml of ICP at 27° C. overnight, with measuring the time course of turbidity change using Mini photo 518R (TAITEC CORPORATION) at 660 nm."}, "[2]": {"tested_on": "VH-cpBLA-VL/pET26/BL21 strain", "assay": "Growth assay using VH-cpBLA-VL expressing strain", "assay_type": "cell-based, E. coli", "details": "100 μg/ml ampicillin LB medium", "description": "Also, for the growth assay, ICP which is the target antigen of this antibody-enzyme fusion protein, and the thiacloprid (TCP) which is an analog of ICP with a lower cross-reactivity than ICP were used. In further detail, the assay was performed by the following procedures.\nFirst, the strain expressing VH-cpBLA-VL (antibody-enzyme fusion protein) was prepared.\n0.5 μg of VH-cpBLA-VL/pET26 was used for transformation of 100 μl of the BL21 (DE3, pLysS) strain (F-, ompT, hsdSB, (rB-, mB-), dcm, gal, λ(DE3), pLysS, Cmr), and the transformed cells were cultured on an LB agar medium plate containing 50 μg/ml of kanamycin and 37 μg/ml of chloramphenicol at 30° C. overnight, to prepare an antibody-enzyme fusion protein expressing strain (VH-cpBLA-VL/pET26/BL21 strain). After the overnight culture, colonies generated on the above-mentioned LB agar medium plate were picked with a toothpick, inoculated and cultured in a 4 ml of the LB liquid culture medium plate containing 50 μg/ml of kanamycin and 37 μg/ml of chloramphenicol at 27° C. overnight. 4 μl of this pre-cultured medium was inoculated and cultured in 4 ml of the LB liquid culture medium containing 50 μg/ml of kanamycin and 37 μg/ml of chloramphenicol, 1 mM of IPTG, 0 or 100 μg/ml ampicillin, 0 to 10 ng/ml of ICP or TCP at 27° C. for 33 hours, with measuring the time course of turbidity change using Mini photo 518R at 660 nm."}, "[3]": {"tested_on": "VH-split•cpBLA-VL/pET26/C43 strain", "assay": "Growth assay using VH-split•cpBLA-VL expressing strain", "assay_type": "cell-based, E. coli", "description": "(§1) By applying the assay of the above-mentioned Example 6, VH-split•cpBLA-VL/pET26 was used instead of VH-cpBLA-VL/pET26, and the E. coli C43 (DE3) strain (Lucigen Corporation) suitable for overexpression of a highly toxic protein was used instead of the BL21 (DE3, pLysS) strain, to investigate the expression in the strains. To be specific, 0.5 μg of VH-split•cpBLA-VL/pET26 was used for transformation for the C43 (DE3) strain, and the transformed cells were cultured on a LB agar medium plate containing 50 μg/ml of kanamycin at 30° C. overnight, and the VH-split•cpBLA-VL expressing strain (VH-split•cpBLA-VL/pET26/C43 strain) was prepared. After overnight culture, the colonies generated on the above-mentioned LB agar medium plate were picked with a toothpick, inoculated and cultured in a 4 ml of the LB liquid medium containing 50 […] (LBK) at 27° C. overnight. 10 μl of this pre-cultured medium was inoculated in 1 ml of the LBK liquid medium containing 1 mM of IPTG, 0 or 10 μg/ml of ampicillin, 10 ng/ml of ICP or TCP. After the cells were cultured at 27° C. for 45 hours, the turbidity was measured using Mini photo 518R at 660 nm."}, "[4]": {"tested_on": "antibody-enzyme fusion protein (VH-cpBLA-VL)", "assay": "β-lactamase activity change of VH-cpBLA-VL with chromogenic substrate Nitrocefin", "assay_type": "biochemical", "details": "5 μl of 10 μg/ml antigen, 1 mM Nitrocefin, room temperature 18 hours", "description": "First, 5 μl of the concentrated VH-cpBLA-VL protein solution prepared in Example 9, 5 μl of 10 μg/ml ICP or TCP, and 90 μl of PBS containing 1 mM of Nitrocefin were mixed, and left in a dark place at a room temperature for 18 hours. Then, the absorbance at 490 nm of the reaction solution was measured to investigate the change in the β-lactamase activity. Further, absorbance at 490 nm was also measured when PBS was used instead of ICP or TCP (the item “PBS” in FIG. 12), or when VH-cpBLA-VL protein solution was not added (the item “Nitrocefin” in FIG. 12). […] In other words, the ICP-dependent increase of β-lactamase activity was observed."}, "[5]": {"tested_on": "antibody-enzyme fusion protein (VH-cpBLA-VL)", "assay": "β-lactamase activity change of VH-cpBLA-VL with fluorogenic substrate Fluorocillin", "assay_type": "biochemical", "details": "5 μl of 10 μg/ml antigen, 10 μM Fluorocillin, room temperature 30 minutes", "description": "Next, a similar experiment was performed using a fluorogenic substrate Fluorocillin instead of the chromogenic substrate Nitrocefin. Specifically, 5 μl of concentrated VH-cpBLA-VL protein solution prepared in Example 9, and 5 of 10 μg/ml ICP or TCP were mixed, and incubated at 4° C. for 30 minutes. Then, 90 μl of PBS containing 10 μM Fluorocillin was added, and incubated at a room temperature for 30 minutes. The fluorescence at 535 nm with 435 nm excitation was measured using a microplate reader Genios Pro (Tecan Japan Co., Ltd.). […] In other words, the increase of the ICP-dependent β-lactamase activity was observed."}, "[6]": {"tested_on": "antibody-enzyme fusion protein (VH-cpBLA-VL(219))", "assay": "Activity assay of VH-cpBLA-VL(219) using Fluorocillin", "assay_type": "biochemical", "details": "triplicate; for change in signal intensity (fluorescence): antigen final concentration 1 μg/ml, compared with PBS", "description": "Activity of the above prepared antibody-enzyme fusion protein (VH-cpBLA-VL(219)) was assayed using Fluorocillin. The antigen peptide BGP-C7 at a final concentration of 0-2000 ng/ml and the antibody-enzyme fusion protein at a final concentration of 300 nM were mixed in 50 μl of PBS, and the mixture was dispensed into black microplate wells. After adding 50 μL of 2 μM Fluorocillin in PBS, the mixture was incubated at 28° C. for 60 minutes, and read for its fluorescence intensity (intensity at 535 nm with excitation light irradiation at 485 nm). Also, control experiments were performed without antibody-enzyme fusion protein, and the fluorescence intensity of these wells was used for background subtraction. […] For information, the measurement of the present experiment was performed in triplicate. Black circles in FIG. 14 indicate the average value of the measured values and the error bars indicate 1SD.\nFurther, similar experiments were performed using a substance other than BGP-C7 (BGP-C8, BGP-C10, ICP, TCP with each final concentration of 1 μg/ml) as antigens."}, "[7]": {"tested_on": "cpBLA/pET26/BL21 strain or cpBLA/pET26/C43 strain", "assay": "Growth assay using cpBLA expressing strain", "assay_type": "cell-based, E. coli", "description": "as §1"}, "[8]": {"assay": "ELISA for antigen binding ability of the antibody-enzyme fusion protein", "details": "ICP-BSA versus BSA coated plates", "description": "The following ELISA assay was performed to confirm whether the antibody-enzyme fusion protein (VH-cpBLA-VL) actually has a binding activity to the antigen (ICP).\nPBS solution containing 10 μg/ml of ICP-BSA or BSA was dispensed into Falcon 3912 microplates by 100 μl each, and left at 4° C. for 16 hours. After discarding the solution from the microplates, 200 μl of PBS including 25% of Immunoblock was added and left at a room temperature for 2 hours for blocking. Next, after washing the microplates with PBS-T, […] of the purified antibody-enzyme fusion protein (VH-cpBLA-VL) prepared in the above-mentioned Example 9 and 100 μl of PBS containing 5% Immunoblock were added, and left at a room temperature for 90 minutes. In order to detect the antibody-enzyme fusion protein (VH-cpBLA-VL) bound to the solid-phase by the above preparation, the microplates were washed with PBS-T, and added with HRP labeled Penta-His (QIAGEN K.K., Tokyo) diluted in 1/2000 in PBS containing 5% Immunoblock. […] After incubation for 5 minutes in a dark place, the reaction was stopped by adding 50 μl of 3.2 N of H2SO4, and the absorbance was measured with a platereader (450 nm).\nAlso, the above-mentioned ELISA was applied for VH-split•cpBLA-VL(VH-BLAc and BLAn-VL) or cpBLA instead of using VH-cpBLA-VL, and the absorbance was measured similarly. […]"}, "[9]": {"details": "less than 100 μg/ml ICP or TCP added"}}}
{"molecule": "O=[N+]([O-])NC1=NCCN1Cc1ccc(Cl)nc1", "note": "[ICP, imidacloprid]", "values": [{"measurement": "toxicity or growth-promoting activity in E. coli", "setting": "[1]", "value": "no toxicity or growth-promoting activity"}, {"measurement": "time after initiation of measurement from which growth was observed", "setting": "[2]; ICP at 1 ng/ml", "value": "about 30 hours"}, {"measurement": "growth of expressing strain (turbidity at 660 nm)", "setting": "[2]; antigen at 1 ng/ml", "value": "dose-dependent growth"}, {"measurement": "growth of expressing strain (turbidity at 660 nm)", "setting": "[2]; antigen at 5 to 10 ng/ml", "value": "dose-dependent growth"}, {"measurement": "growth of expressing strain (turbidity at 660 nm)", "setting": "[3]; 10 μg/ml ampicillin, 10 ng/ml antigen, 27° C., 45 hours", "value": "ICP dependent-growth"}, {"measurement": "growth of expressing strain (turbidity at 660 nm)", "setting": "[3]; [9]", "value": "no significant growth"}, {"measurement": "change in β-lactamase activity (absorbance at 490 nm)", "setting": "[4]", "value": "significant signal increase"}, {"measurement": "change in β-lactamase activity (fluorescence at 535 nm)", "setting": "[5]", "value": "significant signal increase"}, {"measurement": "change in signal intensity (fluorescence)", "setting": "[6]", "value": "only the same signal intensity as PBS"}]}
{"molecule": "N#C/N=C1\\SCCN1Cc1ccc(Cl)nc1", "note": "[TCP, thiacloprid]", "values": [{"measurement": "time after initiation of measurement from which growth was observed", "setting": "[2]; TCP, later than ICP of the same concentration", "value": "about 30 hours"}, {"measurement": "growth of expressing strain (turbidity at 660 nm)", "setting": "[2]; antigen at 10 ng/ml, similar to 1 ng/ml ICP", "value": "significant growth"}, {"measurement": "growth of expressing strain (turbidity at 660 nm)", "setting": "[3]; [9]", "value": "no significant growth"}, {"measurement": "change in β-lactamase activity (absorbance at 490 nm)", "setting": "[4]", "value": "slight significant signal increase"}, {"measurement": "change in signal intensity (fluorescence)", "setting": "[6]", "value": "only the same signal intensity as PBS"}]}
{"molecule": "BGP-C7: antigen peptide (osteocalcin C-terminal peptide) recognised by antibody KTM219 (RRFYGPV)", "values": [{"measurement": "change in fluorescence intensity (535 nm)", "setting": "[6]; antigen 0-2000 ng/ml, 300 nM fusion protein, dose-dependent", "value": "significant increase of the fluorescence intensity"}]}
{"molecule": "BGP-C8: BGP peptide detectable by open sandwich ELISA with KTM219 (YRRFYGPV)", "values": [{"measurement": "change in signal intensity (fluorescence)", "setting": "[6]", "value": "increase of the signal intensity"}]}
{"molecule": "BGP-C10: BGP peptide detectable by open sandwich ELISA with KTM219 (EAYRRFYGPV)", "values": [{"measurement": "change in signal intensity (fluorescence)", "setting": "[6]", "value": "increase of the signal intensity"}]}
{"molecule": "B1", "values": [{"measurement": "growth of expressing strain", "setting": "[7]; ampicillin added", "value": "growth was not observed in any of the samples"}, {"measurement": "growth of expressing strain", "setting": "[7]; ampicillin not added", "value": "growth was observed regardless of the presence or absence of the antigen"}, {"measurement": "antigen-dependent growth", "setting": "[7]; any of the cpBLA expressing strains", "value": "antigen-dependent growth was not observed"}, {"measurement": "ELISA signal regardless of the presence or absence of ICP (antigen)", "setting": "[8]", "value": "similarly low signal"}]}
